Data as given in patent US11192921B2 (priority 2017, dated 2021).
Where “and” joins values, the source holds several entries; their conditions need not be identical. Equal values may be shown once. No end group written: not given here.

Tests used:
Female Kunming mice = assay type: in vivo; conditions: mouse, in vivo, ip
Kunming mice [1] = assay type: in vivo; conditions: mouse, in vivo
Kunming mice [2] = conditions: mouse, in vivo

Which Pain threshold (Female Kunming mice) does the source give for “GCCSTPPCAVLYC (cysteine pairing not given here) [Conotoxin, reference compound]” here?
Its Pain threshold is 27.29 ± 0.48 s and 29.32 ± 0.18 s and 24.1 ± 0.28 s and 30.39 ± 0.28 s and 27.39 ± 0.28 s and 26.21 ± 0.38 s and 24.63 ± 0.12 s.

And the “Pain threshold (tail flick)” value (Kunming mice [1])?
Its value is 2.23 ± 0.18 s and 2.32 ± 0.28 s and 2.21 ± 0.12 s and 2.31 ± 0.18 s and 2.12 ± 0.12 s and 2.63 ± 0.12 s.

What about the “cumulative foot licking time, Phase I” value (Kunming mice [2]) of the same sequence?
Its value is 50.38 ± 9.38.

And the “cumulative foot licking time, Phase II” value (Kunming mice [2])?
Its value is 53.64 ± 15.32.
